Test results reported in patent US10149907B2, “Combinations of a photosensitizer with a hydrogen sulfide donor, thioredoxin inhibitor or nitroxide for use in photodynamic therapy” (UNIVERSITY OF EXETER, priority 2014, dated 2018).
“And” between values parts separate entries of the source, which are not always exact repeats. Equal entries are not always repeated. Where two headings read alike, the source gives them in different places.

Key:
A431 cells [1] = experiment: MAL-induced PpIX accumulation, fluorescence plate reader; format: cell-based, human; details: for effect on PpIX accumulation compared to 1 mM MAL: 10, 100 and 1000 nM 5 hours + MAL 1 mM 3 hours, FIG. 21, 22
Protocol: After treatment, the cells were washed with PBS and a final 100 μl PBS was pipetted into each well for fluorescence readings. The fluorescence of PpIX was measured using a BMG Pherastar plate reader with a 410 nm excitation filter and a 630 nm emission filter.
A431 cells were treated concurrently with slow-releasing hydrogen sulfide donors (1 μM) for 5 hours and MAL (1 mM) for 3 hours, after which PpIX accumulation was measured by fluorescence plate reader (excitation 410 nm, […]). Co-treatment with CP94 (50 μM) was used as a positive control and for comparison.

A431 cells [2] = details: for tolerance over 72 hours: 0-1000 nM
Protocol: A431 cells were seeded at a density of 1×10^5 cells/ml in 96 well plates and incubated under 2% O2 for 48 h prior to treatment. After 24 h, the culture medium was replaced and the cells were placed back into the incubators under 2% O2. Following this incubation period, the culture medium was then removed and the plates were washed with PBS. The cells were then treated with 1 mM MAL in the absence or presence of one of the compounds of interest and then incubated again at 2% O2 for 3 h. For experiments carried out with SRHDs, this treatment step was carried out for 5 h at 2% O2. After treatment, the cells were washed with PBS, the culture medium was replaced and the cells were placed back under 2% O2 for 3 h. Following this final incubation, cell death was analysed using the resazurin viability assay.
Resazurin (7-hydroxy-3H-phenoxazin-3-one 0-oxide) is a weakly fluorescent blue dye used primarily in oxidation-reduction cell viability assays. Irreversible NADH-dependent reduction by the mitochondria in mammalian cells leads to the production of resorufin, a highly fluorescent product with excitation at 571 nm, emission at 585 nm.
A431 cells were seeded into 96 well plates at a density of 1.5*10^6 cells per ml (200 μl per well, 3*10^5 cells) and incubated for 24 h to adhere. Following incubation, the cells were washed and treated with the compound of interest for the relevant time, and then washed with PBS. […] After a 2 h incubation, the fluorescence of each well was measured (excitation: 571 nm, emission: 585 nm) using a fluorescence plate reader. Data from these experiments was plotted as a percentage of cell viability compared to untreated control cells.

A431 cells [3] = experiment: Mitochondrial reactive oxygen species generation during photodynamic irradiation, MitoSOX flow cytometry; format: cell-based, human
Protocol: A431 cells were treated concurrently with AP39-C10 (10, 100 or 1000 nM) for 5 hours, MAL (1 mM) for 3 hours and MitoSOX (2.5 μM) for 1 hour, after which they were irradiated for 5 min (630 nm, 25 J/cm^2) and MitoSOX (mito-2-OH-E^+) fluorescence, indicative of mitochondrial oxidant production, was immediately analysed by flow cytometry. Results are set out in FIG. 23.
Mitochondria-targeted dihydroethidium (i.e. MitoSOX) was used to assess the production of mitochondrial reactive oxygen species (ROS) by PpIX photochemical reactions and to determine the effects of AP39-C10 on this process. All of the results are represented as a percentage of the untreated controls (100.0±8.5%). The fluorescence of the photoirradiated cells, which had been pre-treated with MAL, was 193.7±7.3% (p<0.001 c.f. untreated controls).

A431 cells [4] = experiment: cells; format: cell-based; details: for increase in cell killing compared to the use of MAL alone: 10 nM; for potency compared to CP94 (50 μM) exerting a similar degree of potentiation: 10 nM vs CP94 50 μM; for modes of cell death: 1 mM MAL + SRHD 10, 100 or 1000 nM + irradiation, FIG. 19
Protocol: A431 cells (human epithelial squamous cell carcinoma cells) were seeded at a density of 1×10^6 cells/ml in T12.5 cm^2 flasks and incubated under 2% O2 for 48 h prior to treatment. After 24 h, the culture medium was replaced and the cells were placed back into the incubators under 2% O2. Following this incubation period, the culture medium was then removed and the flasks were washed with PBS. The cells were then treated with one of the SRHDs and incubated at 2% O2 for 2 h, after which MAL was added to a final concentration of 1 mM and the cells were incubated at 2% O2 for 3 h. This meant in total, the cells were treated with the SRHDs for 5 h.
Following this final incubation, cell death was analysed by annexin V-FITC and propidium iodide staining in conjunction with flow cytometry.
(§1) Cell death analysis by flow cytometry was carried out using the annexin V-FITC/propidium iodide protocol. This protocol allows a quantitative assessment of cell death, particularly specific modes of death, and involves staining the cells with fluorescein isothiocyanate-conjugated annexin A5 (annexin V-FITC) and propidium iodide (PI). Positive staining with annexin V-FITC alone indicates an apoptotic cell; positive staining with PI alone indicates a necrotic cell and dual staining of both annexin V and PI indicates a “late apoptotic” cell.
From each flask being assessed, the old medium was removed and placed into a corresponding individual 15 ml Falcon tube in order to collect any cells that may have detached from the surface. The flask was washed once with 1 ml PBS; also deposited in the Falcon tubes. Trypsin (500 μl) was added to each flask and the flasks were returned to the incubator with their caps loosened. Cell detachment was monitored using an inverted light microscope, until 50% of the cells were detached. The flasks were then lightly tapped to detach the remainder of the cells. Medium (2 ml) was added to each flask in order to neutralise the trypsin present before being removed and dispensed into the Falcon tubes. One more wash with PBS was carried out in order to ensure any cells left in the flasks were collected. The Falcon tubes were then centrifuged at 490 g for 3 min, forming a pellet at the bottom of the tube. The supernatant was discarded, and the cells were re-suspended in 5 ml of PBS, in order to wash them, before being centrifuged again at 490 g for 3 min. […] The Falcon tubes were placed on ice and in the dark for 15 min to allow annexin V staining. […] The samples were then ready to be assessed by flow cytometry.
(§2) The following flow cytometry process of sample detection was used. When using annexin V-FITC and PI, the detectors being used were FL1 (λmax=520 nm) and FL3 (λmax=670 nm), respectively, each with their own logarithmic histogram generated by the software. The intensity of the fluorescence detected is measured on a logarithmic scale on the x-axis and the y-axis represents the number of cells detected at a given fluorescence intensity. A plot of FL1/FL3 produces a 4-quadrant graph, where unstained and untreated cells are located in the bottom left quadrant, representing any cells found in the 1st decade of the single plot logarithmic histograms. Single staining with annexin V-FITC and PI are located in the bottom right and top left quadrant, respectively, and dual staining is located in the top right quadrant. These quadrants represent any cells detected above the 1st decade of the logarithmic histograms.

A431 cells [5] = experiment: MAL-induced PpIX accumulation, fluorescence plate reader; format: cell-based, human; details: 3 hours
A431 cells [6] = experiment: Photodynamic cell killing in the presence of inhibitors of the thioredoxin antioxidant system or nitroxides (annexin V-FITC/propidium iodide flow cytometry); format: cell-based, human
Protocol: After this treatment, the cells were irradiated for 5 min (630 nm, 25 J/cm^2), then washed with PBS and the culture medium was replaced, after which the cells were placed back under 2% O2 and incubated for a further 3 h. Following this final incubation, cell death was analysed by annexin V-FITC and propidium iodide staining in conjunction with flow cytometry.
as §1
From each flask being assessed, the old medium was removed and placed into a corresponding individual 15 ml Falcon tube in order to collect any cells that may have detached from the surface. The flask was washed once with 1 ml PBS; also deposited in the Falcon tubes. Trypsin (500 μl) was added to each flask and the flasks were returned to the incubator with their caps loosened. Cell detachment was monitored using an inverted light microscope, until 50% of the cells were detached. The flasks were then lightly tapped to detach the remainder of the cells. Medium (2 ml) was added to each flask in order to neutralise the trypsin present before being removed and dispensed into the Falcon tubes. One more wash with PBS was carried out in order to ensure any cells left in the flasks were collected. The Falcon tubes were then centrifuged at 490 g for 3 min, forming a pellet at the bottom of the tube. The supernatant was discarded, and the cells were re-suspended in 5 ml of PBS, in order to wash them, before being centrifuged again at 490 g for 3 min. The wash stage was carried out once more before re-suspending the cell pellet in 95 μl of ice cold calcium (Ca^2+) buffer (50 mM HEPES, 700 mM NaCl, 12.5 mM CaCl2, pH 7.4) and adding 5 μl 12.5 μg/ml of annexin V-FITC (final concentration, 1.25 μg/ml), under reduced light conditions to prevent bleaching of the FITC. The Falcon tubes were placed on ice and in the dark for 15 min to allow annexin V staining. After 15 min, 860 μl of Ca^2+ buffer (10 mM Hepes adjusted to pH 7.4, 140 mM NaCl and 2.5 mM CaCl2) was added, followed by 40 μl of 1 mg/ml PI in water (final concentration, 0.04 mg/ml) to give a final volume of 1 ml. The samples were then ready to be assessed by flow cytometry.
as §2

[7] = MAL 1 mM + SRHD 10 nM (5 hours), irradiated
[8] = MAL 1 mM + SRHD 100 nM (5 hours), irradiated
[9] = MAL 1 mM + SRHD 1000 nM (5 hours), irradiated
[10] = 1 mM MAL + SRHD 10 nM (5 h) + irradiation, FIG. 18
[11] = 1 mM MAL + SRHD 100 nM (5 h) + irradiation, FIG. 18
[12] = 1 mM MAL + SRHD 1 μM (5 h) + irradiation, 3 h post-irradiation
[13] = 1 mM MAL + SRHD 1000 nM (5 h) + irradiation, FIG. 18
[14] = dark toxicity, without irradiation, SRHD 1 μM, 5 h, FIG. 1, 3

Compound	effect on PpIX accumulation compared to 1 mM MAL (A431 cells [1])	tolerance over 72 hours (A431 cells [2]; 72 hours)	cell viability, percentage of untreated control (A431 cells [2]; 500 μM, 5 hours, FIG. 15, 16) [%]	MitoSOX fluorescence, percentage of untreated controls (A431 cells [3]; [7]) [%]	MitoSOX fluorescence, percentage of untreated controls (A431 cells [3]; [8]) [%]	MitoSOX fluorescence, percentage of untreated controls (A431 cells [3]; [9]) [%]	increase in cell killing compared to the use of MAL alone (A431 cells [4]) [fold]	potency compared to CP94 (50 μM) exerting a similar degree of potentiation (A431 cells [4]) [fold]	cell death (A431 cells [4]; [10]) [%]	cell death (A431 cells [4]; [11]) [%]	cell death (A431 cells [4]; [12]) [%]	cell death (A431 cells [4]; [13]) [%]	modes of cell death (A431 cells [4])	cell death (A431 cells [4]; [14]) [%]	other results
O=C(CCCCCCCCC[P+](c1ccccc1)(c1ccccc1)c1ccccc1)Oc1ccc(-c2cc(=S)ss2)cc1 [AP39-C10]	no effect on PpIX accumulation across any of the tested concentrations	well tolerated at each concentration tested	59.3±13.3	207.3±10.7	227.1±3.5	214.3±6.4	~2	5000	50.7±3.1	53.1±2.3	45.3±1.9	50.2±4.9	a further increase in apoptosis and late apoptosis, with no apparent effect on necrotic cell death	12.1±4.9	cell viability, percentage of untreated control (A431 cells [2]; 1000 nM, 72 hours, FIG. 17): 94.1±2.6%
NC(=S)c1ccc(OC(=O)CCCCCCCCC[P+](c2ccccc2)(c2ccccc2)c2ccccc2)cc1 [AP123-C10]	no effect on PpIX accumulation across any of the tested concentrations	well tolerated at each concentration tested	62.6±9.1	237.4±8.2	245.3±10.6	248.1±15.1	~2	5000	57.2±1.3	56.5±2.7	50.9±6.5	66.7±5.6	a further increase in apoptosis and late apoptosis, with no apparent effect on necrotic cell death	14.5±0.5	
CCc1c(O)c(O)cc[n+]1CC.[Cl-] [CP94]															effect on PpIX accumulation compared to 1 mM MAL alone (A431 cells [1]; CP94 50 μM + MAL 1 mM, positive control): significantly increased PpIX accumulation; increase in PpIX accumulation compared to MAL alone (A431 cells [5]; 50 μM + MAL 1 mM, FIG. 35): 223.2±26.1%; peak response, increase in PpIX accumulation compared to MAL alone (A431 cells [5]; peak at TEMPO 5 mM, MitoTEMPO 100 μM, CP94 100 μM, MAL 1 mM): 228.1±42.3%; MitoSOX fluorescence, percentage of untreated cells (A431 cells [3]; MAL 1 mM + co-treatment 50 μM, 3 hours, irradiated): 198.4±7.7%
COC(=O)CCC(=O)CN [MAL, methyl aminolaevulinate]															cell death (A431 cells [6]; 1 mM MAL 3 h and irradiation (630 nm, 25 J/cm2) alone, no co-treatment): 32.5±3.6% and 29.1±3.8% and 34.4±3.2% and 26.8±1.9% and 24.6±4.2%; modes of cell death (A431 cells [6]; 1 mM MAL and irradiation alone, compared to untreated controls): increase in all types of cell death; PpIX accumulation compared to untreated controls (A431 cells [1]; MAL 1 mM, 3 hours): significantly increased PpIX accumulation compared to untreated controls; MitoSOX fluorescence, percentage of untreated controls (A431 cells [3]; MAL 1 mM alone, photoirradiated): 193.7±7.3% and 220.1±8.5% and 143.3±4.8% and 207.4±16.7%; cytotoxicity at 1000 µM (A431 cells [4]; Homo sapiens, A-431, light or radiation study, 3 h, read-out: cell death, 1 mM MAL 3 h and irradiation (630 nm, 25 J/cm2) in the absence of any SRHD): 27.5 ± 5.5%
